Results from patent US12655116B2, “Substituted isophthalic acid diamides” (Bayer Aktiengesellschaft, priority 2020, dated 2026).

Assays:
DIGSA [1] = assay: Post-emergence herbicidal action against DIGSA; type: in vivo, Digitaria sanguinalis; details: Digitaria sanguinalis, 504 h
How it was run: (§1)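 Foliar application at one-leaf stage of formulated test compounds, aqueous spray at 600–800 l/ha with 0.2% wetting agent. Greenhouse, optimal conditions, ~3 weeks; damage scored visually in % relative to untreated plants.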

VERPE [2] = assay: Post-emergence herbicidal action against VERPE; type: in vivo, Veronica persica; details: Veronica persica, 504 h, 20 g/ha
How it was run: as §1

AMARE [3] = assay: Post-emergence herbicidal action against AMARE; type: in vivo, Amaranthus retroflexus; details: Amaranthus retroflexus, 504 h, 20 g/ha, visual assessment about 3 weeks after treatment, 100% = plants have died, 0% = like control plants
How it was run: as §1

ECHCG [4] = assay: Pre-emergence herbicidal action against ECHCG; type: in vivo, Echinochloa crus-galli; details: Echinochloa crus-galli, 504 h, 80 g/ha
How it was run: (§2)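 Greenhouse pots of sandy loam held seeds covered with soil, onto which the compound was applied before emergence. An aqueous suspension or emulsion of WP or EC was used at 600 to 800 l/ha with 0.2% wetting agent. Percent damage was judged visually at 3 weeks.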

LOLRI = assay: Pre-emergence herbicidal action against LOLRI; type: in vivo, Lolium rigidum; details: Lolium rigidum, 504 h, 80 g/ha
How it was run: as §2

AVEFA = assay: Pre-emergence herbicidal action against AVEFA; type: in vivo, Avena fatua; details: Avena fatua, 504 h; 80 g/ha, pre-emergence
How it was run: as §2

SETVI [5] = assay: Post-emergence herbicidal action against SETVI; type: in vivo, Setaria viridis; details: Setaria viridis, 504 h; for pest or weed control at 20 g/ha: dosage 20 g/ha
How it was run: as §1

ABUTH [6] = assay: Post-emergence herbicidal action against ABUTH; type: in vivo, Abutilon theophrasti; details: Abutilon theophrasti, 504 h, visual assessment about 3 weeks after treatment vs untreated controls; for pest or weed control at 20 g/ha: dosage 20 g/ha
How it was run: as §1

ALOMY [7] = assay: Pre-emergence herbicidal action against ALOMY; type: in vivo, Alopecurus myosuroides; details: Alopecurus myosuroides, 504 h; 80 g/ha, pre-emergence, scored visually after 3 weeks vs untreated controls (100% = plants have died, 0% = like control plants)
How it was run: as §2

ABUTH [8] = assay: Pre-emergence herbicidal action against ABUTH; type: in vivo, Abutilon theophrasti; details: Abutilon theophrasti, 504 h; for pest or weed control at 80 g/ha: scored visually after 3 weeks vs untreated controls (100% = plants have died, 0% = like control plants); for pest or weed control at 20 g/ha: dosage 20 g/ha, scored visually after 3 weeks vs untreated controls, 100% = plants have died, 0% = like control plants, read-out: Pre-emergence action against ABUTH (herbicidal activity in percent)
How it was run: as §2

ALOMY [9] = assay: Post-emergence herbicidal action against ALOMY; type: in vivo, Alopecurus myosuroides; details: Alopecurus myosuroides, 504 h, dosage 20 g/ha, visual assessment about 3 weeks after treatment vs untreated controls
How it was run: as §1

VIOTR [10] = assay: Pre-emergence herbicidal action against VIOTR; type: in vivo, Viola tricolor; details: Viola tricolor, 504 h; for pest or weed control at 80 g/ha: dosage 80 g/ha
How it was run: as §2

MATIN [11] = assay: Pre-emergence herbicidal action against MATIN; type: in vivo, Matricaria inodora; details: Tripleurospermum inodorum, 504 h; for pest or weed control at 20 g/ha: dosage 20 g/ha; for pest or weed control at 80 g/ha: dosage 80 g/ha
How it was run: as §2

MATIN [12] = assay: Post-emergence herbicidal action against MATIN; type: in vivo, Matricaria inodora; details: Tripleurospermum inodorum, 504 h; for pest or weed control at 20 g/ha: dosage 20 g/ha
How it was run: as §1

DIGSA [13] = assay: Pre-emergence herbicidal action against DIGSA; type: in vivo, Digitaria sanguinalis; details: Digitaria sanguinalis, 504 h; for pest or weed control at 20 g/ha: dosage 20 g/ha; for pest or weed control at 80 g/ha: dosage 80 g/ha
How it was run: as §2

PHBPU [14] = assay: Post-emergence herbicidal action against PHBPU; type: in vivo, Pharbitis purpurea; details: Ipomoea purpurea, 504 h; for pest or weed control at 20 g/ha: dosage 20 g/ha
How it was run: as §1

SETVI [15] = assay: Pre-emergence herbicidal action against SETVI; type: in vivo, Setaria viridis; details: Setaria viridis, 504 h; for pest or weed control at 80 g/ha: dosage 80 g/ha
How it was run: as §2

VIOTR [16] = assay: Post-emergence herbicidal action against VIOTR; type: in vivo, Viola tricolor; details: Viola tricolor, 504 h, 20 g/ha
How it was run: as §1

POLCO = assay: Pre-emergence herbicidal action against POLCO; type: in vivo, Polygonum convolvulus; details: Fallopia convolvulus, 504 h, dosage 80 g/ha
How it was run: as §2

VERPE [17] = assay: Pre-emergence herbicidal action against VERPE; type: in vivo, Veronica persica; details: Veronica persica, 504 h, dosage 80 g/ha
How it was run: as §2

AMARE [18] = assay: Pre-emergence herbicidal action against AMARE; type: in vivo, Amaranthus retroflexus; details: Amaranthus retroflexus, 504 h, scored visually after 3 weeks vs untreated controls, 100% = plants have died, 0% = like control plants
How it was run: as §2

PHBPU [19] = assay: Pre-emergence herbicidal action against PHBPU; type: in vivo, Pharbitis purpurea; details: Ipomoea purpurea, 504 h, dosage 80 g/ha
How it was run: as §2

ECHCG [20] = assay: Post-emergence herbicidal action against ECHCG; type: in vivo, Echinochloa crus-galli; details: Echinochloa crus-galli, 504 h; for pest or weed control at 5 g/ha: dosage 5 g/ha; for pest or weed control at 20 g/ha: dosage 20 g/ha
How it was run: as §1

**Q.** With `Cc1c(C(=O)Nc2nnnn2C)ccc(C(F)(F)F)c1C(=O)NC(C)C` [Example 1-33] as the molecule, how does the pest or weed control at 20 g/ha (DIGSA [1]) read?
**A.** 90%

**Q.** What about the pest or weed control at 20 g/ha (VERPE [2]) of the same molecule?
**A.** 80%

**Q.** What about the pest or weed control at 20 g/ha (AMARE [3]) of the same molecule?
**A.** 100%

**Q.** What about the pest or weed control at 80 g/ha (ECHCG [4]) of the same molecule?
**A.** 100%

**Q.** And the pest or weed control at 80 g/ha (LOLRI)?
**A.** 80%

**Q.** What about the pest or weed control at 80 g/ha (AVEFA) of the same molecule?
**A.** 100%

**Q.** What about the pest or weed control at 5 g/ha (SETVI [5]; dosage 5 g/ha) of the same molecule?
**A.** 80%

**Q.** What about the pest or weed control at 20 g/ha (SETVI [5]) of the same molecule?
**A.** 90%

**Q.** And the pest or weed control at 20 g/ha (ABUTH [6])?
**A.** 90%

**Q.** And the pest or weed control at 80 g/ha (ALOMY [7])?
**A.** 100%

**Q.** And the pest or weed control at 80 g/ha (ABUTH [8])?
**A.** 100%

**Q.** And the pest or weed control at 20 g/ha (ABUTH [8])?
**A.** 90%

**Q.** What about the pest or weed control at 20 g/ha (ALOMY [9]) of the same molecule?
**A.** 90%

**Q.** What about the pest or weed control at 20 g/ha (VIOTR [10]; dosage 20 g/ha) of the same molecule?
**A.** 100%

**Q.** What about the pest or weed control at 80 g/ha (VIOTR [10]) of the same molecule?
**A.** 100%

**Q.** And the pest or weed control at 20 g/ha (MATIN [11])?
**A.** 100%

**Q.** What about the pest or weed control at 80 g/ha (MATIN [11]) of the same molecule?
**A.** 100%

**Q.** What about the pest or weed control at 5 g/ha (MATIN [12]; dosage 5 g/ha) of the same molecule?
**A.** 80%

**Q.** And the pest or weed control at 20 g/ha (MATIN [12])?
**A.** 80%

**Q.** And the pest or weed control at 20 g/ha (DIGSA [13])?
**A.** 100%

**Q.** And the pest or weed control at 80 g/ha (DIGSA [13])?
**A.** 100%

**Q.** And the pest or weed control at 20 g/ha (PHBPU [14])?
**A.** 80%

**Q.** What about the pest or weed control at 80 g/ha (SETVI [15]) of the same molecule?
**A.** 100%

**Q.** What about the pest or weed control at 20 g/ha (VIOTR [16]) of the same molecule?
**A.** 80%

**Q.** And the pest or weed control at 80 g/ha (POLCO)?
**A.** 90%

**Q.** And the pest or weed control at 80 g/ha (VERPE [17])?
**A.** 100%

**Q.** And the pest or weed control at 20 g/ha (AMARE [18])?
**A.** 100%

**Q.** What about the pest or weed control at 80 g/ha (AMARE [18]) of the same molecule?
**A.** 100%

**Q.** And the pest or weed control at 80 g/ha (PHBPU [19])?
**A.** 100%

**Q.** What about the pest or weed control at 5 g/ha (ECHCG [20]) of the same molecule?
**A.** 80%

**Q.** And the pest or weed control at 20 g/ha (ECHCG [20])?
**A.** 90%

**Q.** With `CC(C)NC(=O)c1c(C(F)F)ccc(C(=O)Nc2nnnn2C)c1Cl` [Example 1-155] as the molecule, how does the pest or weed control at 5 g/ha (DIGSA [1]; 5 g/ha) read?
**A.** 90%

**Q.** And the pest or weed control at 20 g/ha (DIGSA [1])?
**A.** 90%

**Q.** And the pest or weed control at 20 g/ha (VERPE [2])?
**A.** 80%

**Q.** And the pest or weed control at 20 g/ha (AMARE [3])?
**A.** 90%

**Q.** And the pest or weed control at 80 g/ha (ECHCG [4])?
**A.** 100%

**Q.** What about the pest or weed control at 80 g/ha (LOLRI) of the same molecule?
**A.** 90%

**Q.** And the pest or weed control at 80 g/ha (AVEFA)?
**A.** 90%

**Q.** What about the pest or weed control at 20 g/ha (SETVI [5]) of the same molecule?
**A.** 80%

**Q.** What about the pest or weed control at 5 g/ha (ABUTH [6]; dosage 5 g/ha) of the same molecule?
**A.** 80%

**Q.** And the pest or weed control at 20 g/ha (ABUTH [6])?
**A.** 90%

**Q.** What about the pest or weed control at 80 g/ha (ALOMY [7]) of the same molecule?
**A.** 90%

**Q.** And the pest or weed control at 80 g/ha (ABUTH [8])?
**A.** 100%

**Q.** What about the pest or weed control at 20 g/ha (ABUTH [8]) of the same molecule?
**A.** 100%

**Q.** And the pest or weed control at 20 g/ha (ALOMY [9])?
**A.** 90%

**Q.** And the pest or weed control at 80 g/ha (VIOTR [10])?
**A.** 100%

**Q.** And the pest or weed control at 20 g/ha (MATIN [11])?
**A.** 100%

**Q.** And the pest or weed control at 80 g/ha (MATIN [11])?
**A.** 100%

**Q.** What about the pest or weed control at 20 g/ha (MATIN [12]) of the same molecule?
**A.** 80%

**Q.** What about the pest or weed control at 20 g/ha (DIGSA [13]) of the same molecule?
**A.** 100%

**Q.** What about the pest or weed control at 80 g/ha (DIGSA [13]) of the same molecule?
**A.** 100%

**Q.** What about the pest or weed control at 5 g/ha (PHBPU [14]; dosage 5 g/ha) of the same molecule?
**A.** 90%

**Q.** What about the pest or weed control at 20 g/ha (PHBPU [14]) of the same molecule?
**A.** 90%

**Q.** And the pest or weed control at 20 g/ha (SETVI [15]; dosage 20 g/ha)?
**A.** 80%

**Q.** And the pest or weed control at 80 g/ha (SETVI [15])?
**A.** 100%

**Q.** What about the pest or weed control at 80 g/ha (POLCO) of the same molecule?
**A.** 90%

**Q.** What about the pest or weed control at 80 g/ha (VERPE [17]) of the same molecule?
**A.** 100%

**Q.** And the pest or weed control at 20 g/ha (AMARE [18])?
**A.** 100%

**Q.** What about the pest or weed control at 80 g/ha (AMARE [18]) of the same molecule?
**A.** 100%

**Q.** And the pest or weed control at 80 g/ha (PHBPU [19])?
**A.** 100%

**Q.** And the pest or weed control at 5 g/ha (ECHCG [20])?
**A.** 90%

**Q.** What about the pest or weed control at 20 g/ha (ECHCG [20]) of the same molecule?
**A.** 90%
